US20230263825A1, “ANTI-CANCER ACTIVITY OF PERBORATE SALTS” (priority 2020, published 2023)

Assay: Toxicology in rats, oral, histopathology
Type: in vivo
Conditions: rat, in vivo, po
From the text: After 32 days, the rats were sacrificed and their organs were examined under a microscope.

O.O.O.O.[Na+].[O-]B1OO1 [sodium perborate tetrahydrate]
0%: HEART Notable or abnormal, % (0.125 mg/kg) | INTESTINE, Large Notable or abnormal, % (0.125 mg/kg) | INTESTINE, Small Notable or abnormal, % (0.125 mg/kg) | KIDNEY Edema, % (0.125 mg/kg) | KIDNEY Notable or abnormal, % (0.125 mg/kg) | LIVER Fattening, % (0.125 mg/kg) | LIVER Infiltration, % (0.125 mg/kg) | LIVER Notable or abnormal, % (0.125 mg/kg) | LUNG Lymphocytic infiltration, % (0.125 mg/kg) | LUNG Notable or abnormal, % (0.125 mg/kg) | LUNG Pulmonary edema, % (0.125 mg/kg) | PANCREAS Notable or abnormal, % (0.125 mg/kg) | SPLEEN Notable or abnormal, % (0.125 mg/kg) | STOMACH Notable or abnormal, % (0.125 mg/kg) | HEART Notable or abnormal, % (0.25 mg/kg) | INTESTINE, Large Notable or abnormal, % (0.25 mg/kg) | INTESTINE, Small Notable or abnormal, % (0.25 mg/kg) | KIDNEY Edema, % (0.25 mg/kg) | KIDNEY Notable or abnormal, % (0.25 mg/kg) | LIVER Fattening, % (0.25 mg/kg) | LIVER Infiltration, % (0.25 mg/kg) | LIVER Notable or abnormal, % (0.25 mg/kg) | LUNG Lymphocytic infiltration, % (0.25 mg/kg) | LUNG Notable or abnormal, % (0.25 mg/kg) | LUNG Pulmonary edema, % (0.25 mg/kg) | PANCREAS Notable or abnormal, % (0.25 mg/kg) | SPLEEN Notable or abnormal, % (0.25 mg/kg) | STOMACH Notable or abnormal, % (0.25 mg/kg) | HEART Notable or abnormal, % (0.5 mg/kg) | INTESTINE, Large Notable or abnormal, % (0.5 mg/kg) | INTESTINE, Small Notable or abnormal, % (0.5 mg/kg) | KIDNEY Edema, % (0.5 mg/kg) | KIDNEY Notable or abnormal, % (0.5 mg/kg) | LIVER Fattening, % (0.5 mg/kg) | LIVER Infiltration, % (0.5 mg/kg) | LIVER Notable or abnormal, % (0.5 mg/kg) | LUNG Lymphocytic infiltration, % (0.5 mg/kg) | LUNG Notable or abnormal, % (0.5 mg/kg) | LUNG Pulmonary edema, % (0.5 mg/kg) | PANCREAS Notable or abnormal, % (0.5 mg/kg) | SPLEEN Notable or abnormal, % (0.5 mg/kg) | STOMACH Notable or abnormal, % (0.5 mg/kg) | HEART Notable or abnormal, % (1 mg/kg) | INTESTINE, Large Notable or abnormal, % (1 mg/kg) | INTESTINE, Small Notable or abnormal, % (1 mg/kg) | KIDNEY Edema, % (1 mg/kg) | KIDNEY Notable or abnormal, % (1 mg/kg) | LIVER Fattening, % (1 mg/kg) | LIVER Infiltration, % (1 mg/kg) | LIVER Notable or abnormal, % (1 mg/kg)
10/10: HEART Within normal limits, No Exam (0.125 mg/kg) | INTESTINE, Large Within normal limits, No Exam (0.125 mg/kg) | INTESTINE, Small Within normal limits, No Exam (0.125 mg/kg) | KIDNEY Within normal limits, No Exam (0.125 mg/kg) | LIVER Within normal limits, No Exam (0.125 mg/kg) | LUNG Within normal limits, No Exam (0.125 mg/kg) | PANCREAS Within normal limits, No Exam (0.125 mg/kg) | SPLEEN Within normal limits, No Exam (0.125 mg/kg) | STOMACH Within normal limits, No Exam (0.125 mg/kg) | HEART Within normal limits, No Exam (0.25 mg/kg) | INTESTINE, Large Within normal limits, No Exam (0.25 mg/kg) | INTESTINE, Small Within normal limits, No Exam (0.25 mg/kg) | KIDNEY Within normal limits, No Exam (0.25 mg/kg) | LIVER Within normal limits, No Exam (0.25 mg/kg) | LUNG Within normal limits, No Exam (0.25 mg/kg) | PANCREAS Within normal limits, No Exam (0.25 mg/kg) | SPLEEN Within normal limits, No Exam (0.25 mg/kg) | STOMACH Within normal limits, No Exam (0.25 mg/kg) | HEART Within normal limits, No Exam (0.5 mg/kg) | INTESTINE, Large Within normal limits, No Exam (0.5 mg/kg) | INTESTINE, Small Within normal limits, No Exam (0.5 mg/kg) | KIDNEY Within normal limits, No Exam (0.5 mg/kg) | LIVER Within normal limits, No Exam (0.5 mg/kg) | LUNG Within normal limits, No Exam (0.5 mg/kg) | PANCREAS Within normal limits, No Exam (0.5 mg/kg) | SPLEEN Within normal limits, No Exam (0.5 mg/kg) | STOMACH Within normal limits, No Exam (0.5 mg/kg) | HEART Within normal limits, No Exam (1 mg/kg) | INTESTINE, Large Within normal limits, No Exam (1 mg/kg) | INTESTINE, Small Within normal limits, No Exam (1 mg/kg) | KIDNEY Within normal limits, No Exam (1 mg/kg)
0/10: HEART Notable or abnormal, No Exam (0.125 mg/kg) | INTESTINE, Large Notable or abnormal, No Exam (0.125 mg/kg) | INTESTINE, Small Notable or abnormal, No Exam (0.125 mg/kg) | KIDNEY Edema, No Exam (0.125 mg/kg) | KIDNEY Notable or abnormal, No Exam (0.125 mg/kg) | LIVER Fattening, No Exam (0.125 mg/kg) | LIVER Infiltration, No Exam (0.125 mg/kg) | LIVER Notable or abnormal, No Exam (0.125 mg/kg) | LUNG Lymphocytic infiltration, No Exam (0.125 mg/kg) | LUNG Notable or abnormal, No Exam (0.125 mg/kg) | LUNG Pulmonary edema, No Exam (0.125 mg/kg) | PANCREAS Notable or abnormal, No Exam (0.125 mg/kg) | SPLEEN Notable or abnormal, No Exam (0.125 mg/kg) | STOMACH Notable or abnormal, No Exam (0.125 mg/kg) | HEART Notable or abnormal, No Exam (0.25 mg/kg) | INTESTINE, Large Notable or abnormal, No Exam (0.25 mg/kg) | INTESTINE, Small Notable or abnormal, No Exam (0.25 mg/kg) | KIDNEY Edema, No Exam (0.25 mg/kg) | KIDNEY Notable or abnormal, No Exam (0.25 mg/kg) | LIVER Fattening, No Exam (0.25 mg/kg) | LIVER Infiltration, No Exam (0.25 mg/kg) | LIVER Notable or abnormal, No Exam (0.25 mg/kg) | LUNG Lymphocytic infiltration, No Exam (0.25 mg/kg) | LUNG Notable or abnormal, No Exam (0.25 mg/kg) | LUNG Pulmonary edema, No Exam (0.25 mg/kg) | PANCREAS Notable or abnormal, No Exam (0.25 mg/kg) | SPLEEN Notable or abnormal, No Exam (0.25 mg/kg) | STOMACH Notable or abnormal, No Exam (0.25 mg/kg) | HEART Notable or abnormal, No Exam (0.5 mg/kg) | INTESTINE, Large Notable or abnormal, No Exam (0.5 mg/kg) | INTESTINE, Small Notable or abnormal, No Exam (0.5 mg/kg) | KIDNEY Edema, No Exam (0.5 mg/kg) | KIDNEY Notable or abnormal, No Exam (0.5 mg/kg) | LIVER Fattening, No Exam (0.5 mg/kg) | LIVER Infiltration, No Exam (0.5 mg/kg) | LIVER Notable or abnormal, No Exam (0.5 mg/kg) | LUNG Lymphocytic infiltration, No Exam (0.5 mg/kg) | LUNG Notable or abnormal, No Exam (0.5 mg/kg) | LUNG Pulmonary edema, No Exam (0.5 mg/kg) | PANCREAS Notable or abnormal, No Exam (0.5 mg/kg) | SPLEEN Notable or abnormal, No Exam (0.5 mg/kg) | STOMACH Notable or abnormal, No Exam (0.5 mg/kg) | HEART Notable or abnormal, No Exam (1 mg/kg) | INTESTINE, Large Notable or abnormal, No Exam (1 mg/kg) | INTESTINE, Small Notable or abnormal, No Exam (1 mg/kg) | KIDNEY Edema, No Exam (1 mg/kg) | KIDNEY Notable or abnormal, No Exam (1 mg/kg) | LIVER Fattening, No Exam (1 mg/kg) | LIVER Infiltration, No Exam (1 mg/kg) | LIVER Notable or abnormal, No Exam (1 mg/kg)
100%: HEART Within normal limits, % (0.125 mg/kg) | INTESTINE, Large Within normal limits, % (0.125 mg/kg) | INTESTINE, Small Within normal limits, % (0.125 mg/kg) | KIDNEY Within normal limits, % (0.125 mg/kg) | LIVER Within normal limits, % (0.125 mg/kg) | LUNG Within normal limits, % (0.125 mg/kg) | PANCREAS Within normal limits, % (0.125 mg/kg) | SPLEEN Within normal limits, % (0.125 mg/kg) | STOMACH Within normal limits, % (0.125 mg/kg) | HEART Within normal limits, % (0.25 mg/kg) | INTESTINE, Large Within normal limits, % (0.25 mg/kg) | INTESTINE, Small Within normal limits, % (0.25 mg/kg) | KIDNEY Within normal limits, % (0.25 mg/kg) | LIVER Within normal limits, % (0.25 mg/kg) | LUNG Within normal limits, % (0.25 mg/kg) | PANCREAS Within normal limits, % (0.25 mg/kg) | SPLEEN Within normal limits, % (0.25 mg/kg) | STOMACH Within normal limits, % (0.25 mg/kg) | HEART Within normal limits, % (0.5 mg/kg) | INTESTINE, Large Within normal limits, % (0.5 mg/kg) | INTESTINE, Small Within normal limits, % (0.5 mg/kg) | KIDNEY Within normal limits, % (0.5 mg/kg) | LIVER Within normal limits, % (0.5 mg/kg) | LUNG Within normal limits, % (0.5 mg/kg) | PANCREAS Within normal limits, % (0.5 mg/kg) | SPLEEN Within normal limits, % (0.5 mg/kg) | STOMACH Within normal limits, % (0.5 mg/kg) | HEART Within normal limits, % (1 mg/kg) | INTESTINE, Large Within normal limits, % (1 mg/kg) | INTESTINE, Small Within normal limits, % (1 mg/kg) | KIDNEY Within normal limits, % (1 mg/kg)
